Read-outs that look alike come from different tables or passages of the source.
Key:
central nervous system = conditions: clinical use, 0.5 g/m2; 750-1000 mg/patient; 50% of the maximally tolerated single dose; cited from earlier work
[1] = humans; cited from earlier work
V79 cells = conditions: cited from earlier work
[2] = tested on: spontaneous canine tumors; assay: immunostaining of hypoxia marker adducts in biopsies of spontaneous canine tumors; format: in vivo, dogs
Source text: Weakly basic 2-nitroimidazole hypoxia compounds of the invention are more efficient at detecting fluctuating hypoxia than are compounds that lack a weakly basic moiety when measured in large spontaneous canine tumors analogous to those occurring in humans. The hydrochloride salt of the weakly basic hypoxia marker, pimonidazole, was given to 12 dogs at a dosage of 0.5 gm/m^2 body surface area. Seven hours later, all 12 dogs received CCI-103F, a marker that lacks a weakly basic moiety. Two to four, widely separated biopsy samples were taken from viable regions in each tumor and immediately placed in cold 10% neutral buffered formalin. The specimens were fixed for 18-24 hours at 4° C. and then transferred into cold 70% ethanol and stored at 4° C. until mounted into paraffin blocks. Sections from formalin-fixed paraffin-embedded biopsy samples were immunostained for pimonidazole and CCI-103F binding using primary rabbit polyclonal antisera to pimonidazole and CCI-103F adducts respectively. Immunostained sections were exhaustively scanned at 400× by means of an Axioskop 50 microscope and Fluar objective and the percent immunostaining for pimonidazole and CCI-103F adducts was measured.

[3] = tested on: Chinese hamster V79-4 lung fibroblasts; assay: pH-dependent binding to anoxic V79-4 cells, ELISA of cell lysates; format: cell-based; conditions: for binding (ng/g protein ± SE): anoxic V79 cells, 200 uM, 3 hours, 5% CO2+95% nitrogen
Source text: Weakly basic 2-nitroimidazole hypoxia compounds of the invention are more sensitive detectors of hypoxia in cells at high pH than are 2-nitroimidazoles that lack a weakly basic moiety, such as CCI-103F. pH-dependent binding for weakly basic pimonidazole was compared to that for CCI-103F in Chinese hamster V79-4 lung fibroblasts under conditions of short-term anoxia. The pH range used (6.4 to 7.4) encompasses about 90% of extracellular pHs measured in human tumors. Eagle's minimum essential medium (MEM) containing 4.5 g/L glucose, but no carbonate, was warmed to 37° C. in a warm room and adjusted to pH 6.4, 6.8 and 7.4 by the addition of sodium bicarbonate under a stream of 5% CO2+95% nitrogen. Fetal bovine serum (FBS) was added to produce an Eagle's pH adjusted MEM containing 10% FBS. Attached V79-4 cells were harvested with EDTA-trypsin and diluted in 25 mL of the pH adjusted MEM at a concentration of 3×10^5 cells/mL. To this solution was added an amount of a stock solution of pimonidazole HCl or CCI-103F to produce a final concentration of 200 uM. The cell solution was then incubated under an atmosphere of 5% CO2+95% nitrogen with agitation for 3 hours. Cell lysates were analyzed by ELISA and the data normalized to protein content. The experiments for both markers were performed in triplicate.

[4] = cited from earlier work

SMILES	central nervous system (CNS) effects (central nervous system)	plasma half-life (t1/2) [1] [h]	Ci/Ce in V79 cells (V79 cells; pH 6.4)	Ci/Ce in V79 cells (V79 cells; pH 6.8)	Ci/Ce in V79 cells (V79 cells; pH 7.4)	extent of immunostaining relative to CCI-103F, factor on average ([2]; 12 dogs, pimonidazole HCl 0.5 gm/m^2, CCI-103F seven hours later, paired t test)	extent of binding relative to CCI-103F within a single tumor ([2]; regions of one canine tumor, FIGS. 1A-1D)	binding (ng/g protein ± SE) ([3]; pH 6.4) [ng/g protein]	intensity of binding compared with CCI-103F ([3]; pH 6.4 to 7.4, anoxic V79-4 cells)	binding (ng/g protein ± SE) ([3]; pH 6.8) [ng/g protein]	binding (ng/g protein ± SE) ([3]; pH 7.4) [ng/g protein]	pKa [4]
O=[N+]([O-])c1nccn1CC(O)CN1CCCCC1 (centres unmarked) [pimonidazole, 1-(2-hydroxy-3-piperidinopropyl)-2-nitroimidazole]	extremely low frequency of even the mildest of central nervous system (CNS) effects	5.1 ± 0.8	1.0	1.6	3.3	1.25	greatly exceeded it in other regions	144 ± 15	greater than that for CCI-103F at all pH levels tested	293 ± 19	363 ± 22	8.7
COCC(O)Cn1ccnc1[N+](=O)[O-] (centres unmarked) [misonidazole]	–	9.3	–	–	–	–	–	–	–	–	–	–
O=[N+]([O-])c1nccn1CC(O)COC(C(F)(F)F)C(F)(F)F (centres unmarked) [CCI-103F]	–	–	~1.0	~1.0	~1.0	–	–	90 ± 7	–	118 ± 17	125 ± 5	–
O=C(Cn1ccnc1[N+](=O)[O-])NCC(F)(F)C(F)(F)F [EF5, 2-(2-nitro-1H-imidazol-1-yl)-N-(2,2,3,3-pentafluoropropyl)-acetamide]	–	11.7 ± 2.7	–	–	–	–	–	–	–	–	–	–
